One test deals with T1, MST1 (Homo sapiens, UniProt Q13043).
T1 sequence (Q13043 1-487): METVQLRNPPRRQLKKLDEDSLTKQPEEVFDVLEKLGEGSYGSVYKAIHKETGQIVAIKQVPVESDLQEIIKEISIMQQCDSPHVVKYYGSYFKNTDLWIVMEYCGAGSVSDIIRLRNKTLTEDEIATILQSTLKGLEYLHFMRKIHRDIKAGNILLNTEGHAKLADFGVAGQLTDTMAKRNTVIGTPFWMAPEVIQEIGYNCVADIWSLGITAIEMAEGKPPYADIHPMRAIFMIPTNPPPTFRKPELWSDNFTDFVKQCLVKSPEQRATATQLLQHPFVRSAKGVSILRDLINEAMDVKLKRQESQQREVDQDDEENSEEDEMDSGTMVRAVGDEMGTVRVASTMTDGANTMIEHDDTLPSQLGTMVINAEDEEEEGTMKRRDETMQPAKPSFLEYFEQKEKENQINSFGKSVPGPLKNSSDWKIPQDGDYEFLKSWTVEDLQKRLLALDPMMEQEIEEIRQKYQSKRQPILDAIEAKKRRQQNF
Kind of test: biochemical.

For another test, the target named is MAPK1 (Homo sapiens, UniProt P28482). In words: Nanosyn kinase profiling, mobility shift assay. The following applies: read-out: % inhibition by neratinib.
The subject of the next test is 250 kinases. Kind of test: Nanosyn panel of 250 biochemical kinase assays. The following applies: 3 µM, of 250 kinases. The protocol:
inhibition was determined for each assay.

A further test has as its system human islets. In words: β-cell apoptosis (TUNEL/insulin) after Ad-MST1 overexpression. The following applies: for mean TUNEL/isolation/%: MST1 OE + NERA 10 μM 48 h.
For the next test, the target named is PDK1 (Homo sapiens, UniProt O15530). In words: Nanosyn kinase profiling, mobility shift assay. The settings on record: read-out: % inhibition by neratinib.
PDK1, sequence (O15530 whole entry): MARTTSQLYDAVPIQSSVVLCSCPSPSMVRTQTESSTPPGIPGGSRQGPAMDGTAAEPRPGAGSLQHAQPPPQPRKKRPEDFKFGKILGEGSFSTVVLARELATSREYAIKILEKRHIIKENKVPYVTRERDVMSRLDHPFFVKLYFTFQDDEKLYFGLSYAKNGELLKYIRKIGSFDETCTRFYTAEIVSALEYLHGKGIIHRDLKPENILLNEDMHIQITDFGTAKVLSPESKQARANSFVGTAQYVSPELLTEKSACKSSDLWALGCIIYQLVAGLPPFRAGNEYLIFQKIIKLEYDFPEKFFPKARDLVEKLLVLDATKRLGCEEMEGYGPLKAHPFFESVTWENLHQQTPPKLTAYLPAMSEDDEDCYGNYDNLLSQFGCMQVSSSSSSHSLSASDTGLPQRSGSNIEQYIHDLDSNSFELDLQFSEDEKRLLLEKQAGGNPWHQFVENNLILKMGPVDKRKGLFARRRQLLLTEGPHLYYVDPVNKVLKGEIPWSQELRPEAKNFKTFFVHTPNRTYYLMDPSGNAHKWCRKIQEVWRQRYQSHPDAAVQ
The test system of a further test is MLD–STZ C57BL/6J mice. Kind of test: MLD–STZ model: ratio of secreted insulin and glucose at fed state. The format is in vivo, mouse.
The next test addresses SRC (Homo sapiens, UniProt P12931). Kind of test: Nanosyn kinase profiling, mobility shift assay. The following applies: read-out: % inhibition by neratinib.
In another test the target is ROCK1 (Homo sapiens, UniProt Q13464). Kind of test: Nanosyn kinase profiling, mobility shift assay. The settings on record: read-out: % inhibition by neratinib.
ROCK1, sequence (Q13464 whole entry): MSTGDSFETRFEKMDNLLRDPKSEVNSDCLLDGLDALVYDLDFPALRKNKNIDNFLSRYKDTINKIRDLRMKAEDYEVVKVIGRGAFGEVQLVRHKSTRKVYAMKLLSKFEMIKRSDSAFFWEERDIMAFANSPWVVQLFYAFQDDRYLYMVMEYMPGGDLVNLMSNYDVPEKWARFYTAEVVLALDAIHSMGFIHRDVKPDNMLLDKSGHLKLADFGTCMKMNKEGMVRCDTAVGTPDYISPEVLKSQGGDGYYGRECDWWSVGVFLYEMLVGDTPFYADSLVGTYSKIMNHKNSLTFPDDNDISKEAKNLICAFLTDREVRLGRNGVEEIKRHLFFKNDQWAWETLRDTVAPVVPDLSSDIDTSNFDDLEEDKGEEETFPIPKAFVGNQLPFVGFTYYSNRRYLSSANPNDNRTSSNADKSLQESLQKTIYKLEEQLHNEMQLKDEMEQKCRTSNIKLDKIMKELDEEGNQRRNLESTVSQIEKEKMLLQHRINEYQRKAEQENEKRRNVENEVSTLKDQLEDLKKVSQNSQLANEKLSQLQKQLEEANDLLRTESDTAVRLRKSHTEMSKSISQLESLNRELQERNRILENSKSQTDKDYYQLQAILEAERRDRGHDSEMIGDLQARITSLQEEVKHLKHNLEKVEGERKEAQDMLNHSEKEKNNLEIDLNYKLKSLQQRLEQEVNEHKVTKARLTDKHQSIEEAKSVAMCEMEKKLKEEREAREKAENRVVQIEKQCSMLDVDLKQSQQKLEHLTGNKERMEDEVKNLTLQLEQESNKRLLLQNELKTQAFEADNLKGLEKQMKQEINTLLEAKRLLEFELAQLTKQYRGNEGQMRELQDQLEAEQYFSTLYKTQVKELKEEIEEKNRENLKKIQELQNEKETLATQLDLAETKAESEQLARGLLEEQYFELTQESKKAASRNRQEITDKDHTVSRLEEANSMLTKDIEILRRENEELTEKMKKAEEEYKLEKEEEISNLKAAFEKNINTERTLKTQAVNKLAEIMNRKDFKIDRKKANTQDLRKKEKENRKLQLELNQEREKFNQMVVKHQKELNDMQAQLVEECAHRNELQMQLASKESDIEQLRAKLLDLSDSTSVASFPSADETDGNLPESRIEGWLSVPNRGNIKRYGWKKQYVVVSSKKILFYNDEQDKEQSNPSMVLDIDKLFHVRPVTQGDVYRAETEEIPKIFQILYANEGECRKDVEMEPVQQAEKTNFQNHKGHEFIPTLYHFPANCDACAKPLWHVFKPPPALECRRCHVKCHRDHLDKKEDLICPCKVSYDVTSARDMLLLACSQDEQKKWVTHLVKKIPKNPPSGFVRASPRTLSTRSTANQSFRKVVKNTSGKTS
For another test, the target named is CSK (Homo sapiens, UniProt P41240). In words: Nanosyn kinase profiling, mobility shift assay. The following applies: read-out: % inhibition by neratinib.
For another test, the target named is NEK2 (Homo sapiens, UniProt P51955). Kind of test: Nanosyn kinase profiling, mobility shift assay. The following applies: read-out: % inhibition by neratinib.
A further test deals with ABL1 (Homo sapiens, UniProt P00519). In words: Nanosyn kinase profiling, mobility shift assay. The following applies: read-out: % inhibition by neratinib.
ABL1, sequence (P00519 whole entry): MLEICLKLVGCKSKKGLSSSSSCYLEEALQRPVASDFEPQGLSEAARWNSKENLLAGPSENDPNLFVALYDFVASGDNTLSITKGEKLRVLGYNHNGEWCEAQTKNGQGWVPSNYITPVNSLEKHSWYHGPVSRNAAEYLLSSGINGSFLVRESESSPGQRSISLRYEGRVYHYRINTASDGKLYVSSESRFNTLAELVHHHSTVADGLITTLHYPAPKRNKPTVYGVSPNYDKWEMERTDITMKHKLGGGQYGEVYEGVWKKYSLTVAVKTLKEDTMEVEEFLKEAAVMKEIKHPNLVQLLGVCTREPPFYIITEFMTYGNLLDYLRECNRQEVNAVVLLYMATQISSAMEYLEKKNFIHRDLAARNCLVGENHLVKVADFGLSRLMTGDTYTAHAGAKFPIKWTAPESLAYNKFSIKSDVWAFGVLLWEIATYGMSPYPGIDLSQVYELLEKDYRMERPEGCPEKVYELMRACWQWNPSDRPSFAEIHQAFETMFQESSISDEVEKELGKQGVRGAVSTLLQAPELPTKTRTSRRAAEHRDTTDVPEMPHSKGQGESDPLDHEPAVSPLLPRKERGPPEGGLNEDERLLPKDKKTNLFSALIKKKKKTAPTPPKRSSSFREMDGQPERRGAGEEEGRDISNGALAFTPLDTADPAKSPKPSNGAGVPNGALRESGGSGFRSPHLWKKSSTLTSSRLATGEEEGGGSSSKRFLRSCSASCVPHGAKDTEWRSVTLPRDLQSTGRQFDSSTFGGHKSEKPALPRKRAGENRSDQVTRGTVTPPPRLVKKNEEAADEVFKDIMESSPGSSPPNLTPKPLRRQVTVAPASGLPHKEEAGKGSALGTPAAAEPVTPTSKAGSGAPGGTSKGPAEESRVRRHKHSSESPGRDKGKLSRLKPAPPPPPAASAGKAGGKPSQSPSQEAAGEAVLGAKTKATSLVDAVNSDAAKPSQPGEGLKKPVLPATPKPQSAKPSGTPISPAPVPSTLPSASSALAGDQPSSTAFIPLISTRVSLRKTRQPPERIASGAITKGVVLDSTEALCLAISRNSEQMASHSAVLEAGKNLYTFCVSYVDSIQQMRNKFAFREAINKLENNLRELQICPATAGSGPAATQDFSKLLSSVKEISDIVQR
The next test addresses MST2 (Homo sapiens, UniProt Q13188). In words: biochemical. The settings on record: read-out: % inhibition by neratinib.
The target of the next test is MAP4K4 (Homo sapiens, UniProt O95819). Kind of test: biochemical. The settings on record: read-out: % inhibition by neratinib.
The target of a further test is AMP-A1B1G1 (Homo sapiens, UniProt Q13131). Kind of test: Nanosyn kinase profiling, mobility shift assay. The following applies: read-out: % inhibition by neratinib.
AMP-A1B1G1, sequence (Q13131 whole entry): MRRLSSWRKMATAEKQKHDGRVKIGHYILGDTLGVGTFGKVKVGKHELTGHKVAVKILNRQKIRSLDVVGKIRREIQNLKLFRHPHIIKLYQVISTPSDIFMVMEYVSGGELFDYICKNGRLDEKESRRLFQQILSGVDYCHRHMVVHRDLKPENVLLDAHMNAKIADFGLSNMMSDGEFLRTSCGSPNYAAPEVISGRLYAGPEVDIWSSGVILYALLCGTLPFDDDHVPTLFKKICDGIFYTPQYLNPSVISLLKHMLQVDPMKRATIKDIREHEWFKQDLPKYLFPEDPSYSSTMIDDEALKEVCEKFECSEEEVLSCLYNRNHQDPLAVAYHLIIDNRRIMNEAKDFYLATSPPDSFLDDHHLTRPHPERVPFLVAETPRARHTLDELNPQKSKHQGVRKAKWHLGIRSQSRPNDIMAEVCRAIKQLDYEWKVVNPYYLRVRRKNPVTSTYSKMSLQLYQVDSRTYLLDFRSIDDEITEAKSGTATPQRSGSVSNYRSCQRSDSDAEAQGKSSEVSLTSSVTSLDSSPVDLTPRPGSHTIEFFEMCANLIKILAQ
AMP-A1B1G1, sequence (Q9Y478 whole entry partner): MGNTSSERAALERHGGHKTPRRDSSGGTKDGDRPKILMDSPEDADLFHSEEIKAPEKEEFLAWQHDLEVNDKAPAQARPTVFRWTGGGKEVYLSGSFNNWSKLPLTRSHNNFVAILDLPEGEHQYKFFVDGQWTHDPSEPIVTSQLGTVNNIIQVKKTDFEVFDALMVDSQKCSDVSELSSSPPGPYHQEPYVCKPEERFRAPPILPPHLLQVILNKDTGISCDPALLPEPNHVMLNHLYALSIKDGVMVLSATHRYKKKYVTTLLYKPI
AMP-A1B1G1, sequence (P54619 whole entry partner): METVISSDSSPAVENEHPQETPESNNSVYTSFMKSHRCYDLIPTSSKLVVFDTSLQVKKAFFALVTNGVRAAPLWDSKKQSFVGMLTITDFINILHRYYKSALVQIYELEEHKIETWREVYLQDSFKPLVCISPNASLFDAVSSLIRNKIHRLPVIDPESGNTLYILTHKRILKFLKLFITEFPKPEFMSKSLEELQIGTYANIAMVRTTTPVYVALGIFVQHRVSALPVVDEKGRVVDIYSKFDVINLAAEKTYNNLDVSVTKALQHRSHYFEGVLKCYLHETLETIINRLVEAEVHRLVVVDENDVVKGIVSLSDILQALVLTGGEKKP
The target in a further test is PDGFR-ALPHA (Homo sapiens, UniProt P16234). In words: Nanosyn kinase profiling, mobility shift assay. The settings on record: read-out: % inhibition by neratinib.
In another test the target is MAPKAPK-2 (Homo sapiens, UniProt P49137). In words: Nanosyn kinase profiling, mobility shift assay. The following applies: read-out: % inhibition by neratinib.

SMILES strings stand for the structures. “And” between values parts separate entries of the source, which are not always exact repeats. Identical values can stand only once. “Also recorded” adds a separate entry of the source.

Usually inhibition stands for the relative decrease from the control value, in per cent.

SRC, sequence (P12931 whole entry, species assumed): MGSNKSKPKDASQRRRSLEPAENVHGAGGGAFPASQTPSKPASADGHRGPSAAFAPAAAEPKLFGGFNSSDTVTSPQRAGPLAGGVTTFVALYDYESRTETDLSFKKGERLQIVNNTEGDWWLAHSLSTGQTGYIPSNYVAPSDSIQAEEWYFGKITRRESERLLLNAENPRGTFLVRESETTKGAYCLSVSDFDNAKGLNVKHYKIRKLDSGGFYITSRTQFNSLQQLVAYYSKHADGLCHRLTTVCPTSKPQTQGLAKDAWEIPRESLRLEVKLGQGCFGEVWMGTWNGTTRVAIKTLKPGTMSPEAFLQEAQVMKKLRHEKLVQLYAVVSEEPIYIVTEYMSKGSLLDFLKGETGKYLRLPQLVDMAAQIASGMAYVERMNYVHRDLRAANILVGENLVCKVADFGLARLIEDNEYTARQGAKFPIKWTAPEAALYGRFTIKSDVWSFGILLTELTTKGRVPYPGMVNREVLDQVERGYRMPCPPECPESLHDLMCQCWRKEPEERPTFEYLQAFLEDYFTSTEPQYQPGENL
Method for human islets: Isolated human islets or INS-1E cells were infected with adenovirus carrying LacZ as control or MST1 or LATS2 (all Vector Biolabs), at a multiplicity of infection of 100 (human islets) or 20 (INS-1E) for 4 h[11].

Consider `CCOc1cc2ncc(C#N)c(Nc3ccc(OCc4ccccn4)c(Cl)c3)c2cc1NC(=O)/C=C/CN(C)C` [neratinib], for which the inhibition at 10 µM at MST1 (read-out: % inhibition by neratinib) is 98%; at MAPK1 it was 12%; at PDK1, 6%; on SRC it was 73%; at ROCK1, -48%; at CSK it was 95%. Also, the inhibition at 10 µM is 68% at NEK2; 36% on ABL1; 97% at MST2; 73% at MAP4K4; 11% on AMP-A1B1G1; 31% on PDGFR-ALPHA. Moreover, the inhibition at 10 µM on MAPKAPK-2 is 7%. Moreover, the inhibition at 3 µM at MST1 (read-out: MST1 inhibition) turned out to be 97%. The “number of kinases with 50% of inhibition” value in the test with 250 kinases came out at 59. In the test with human islets (10 μM, 48 h), the “β-cell apoptosis induced by MST1 overexpression” value is “significantly blocked; also recorded: almost fully blocked”. Also, the “mean TUNEL/isolation/%” value in the test on human islets (mean, LacZ = 100) is 126.263%; with human islets (single isolations, LacZ mean = 100) it was 100% and 145.455% and 133.333%. The ins/gluc is 4.232 with MLD–STZ C57BL/6J mice (NeraCtr, Mean); 5.92 and 11.7581 and 5.035 and 1.3144 and 2.029 and 2.349 and 1.295 and 4.152 with MLD–STZ C57BL/6J mice (NeraCtr, fed state, individual mice); 2.006 in the test with MLD–STZ C57BL/6J mice (NeraSTZ, Mean); 2.868 and 0.965 (2×) and 1.859 and 3.923 and 1.035 and 2.9255 and 4.307 and 0.6012 and 1.262 and 1.53 and 2.798 and 0.7155 and 2.33 with MLD–STZ C57BL/6J mice (NeraSTZ, fed state, individual mice).
